The target in one test is HIPK1 (Homo sapiens (Human), UniProt Q86Z02). Nature of the test: KINOMEscan competition binding assay. The method, then: (§1) KINOMEscan™ (Ambit Biosciences, San Diego, Calif.), a high-throughput method for screening small molecular agents against a large panel of human kinases, was utilized for compound 2.
(§2) Kinases where significant binding affinity was detected at 10 μM were retested in dose-response format to determine a dissociation constant. The size of the red circle is proportion to Kd. […] The compound binds in the “DFG-out” conformation as evident by the position of F405. Ample space is available adjacent to the gatekeeper residue T338 providing a rationale for the tolerance for a larger amino acid at this position.

Another test addresses PDGFRA (Homo sapiens (Human), UniProt P16234). The test is described as follows: KINOMEscan competition binding assay. How it is done:
as §1, §2

For another test, the target named is KIT (Homo sapiens (Human), UniProt P10721). Nature of the test: KINOMEscan competition binding assay. The method, then:
as §1, §2

The target of the next test is p38-gamma (Homo sapiens (Human), UniProt P53778). The test is described as follows: KINOMEscan competition binding assay. How it is done:
as §1, §2

A further test deals with CDK2 (Homo sapiens (Human), UniProt P24941). Nature of the test: KINOMEscan competition binding assay. The method, then:
as §1, §2

The next test addresses PDGFRB (Homo sapiens (Human), UniProt P09619). The test is described as follows: KINOMEscan competition binding assay. How it is done:
as §1, §2

The target of another test is FLT4 (Homo sapiens (Human), UniProt P35916). The test is described as follows: KINOMEscan competition binding assay. How it is done:
as §1, §2

For the next test, the target named is ABL1 (Homo sapiens (Human), UniProt P00519). The test is described as follows: KINOMEscan competition binding assay. How it is done: as §1, §2
The target of a further test is CDK3 (Homo sapiens (Human), UniProt Q00526). Nature of the test: KINOMEscan competition binding assay. The method, then: as §1, §2
The target of another test is CDK7 (Homo sapiens (Human), UniProt P50613). The test is described as follows: KINOMEscan competition binding assay. How it is done: as §1, §2
For a further test, the target named is BRAF (Homo sapiens (Human), UniProt P15056). The test is described as follows: KINOMEscan competition binding assay. How it is done:
as §1, §2

For a further test, the target named is DDR1 (Homo sapiens (Human), UniProt Q08345). Nature of the test: KINOMEscan competition binding assay. How it is done: as §1, §2
For another test, the target named is LOK (Homo sapiens (Human), UniProt O94804). The test is described as follows: KINOMEscan competition binding assay. How it is done: as §1, §2
The target of another test is CDK5 (Homo sapiens (Human), UniProt Q00535). The test is described as follows: KINOMEscan competition binding assay. The method, then: as §1, §2
In a further test the target is RET (Homo sapiens (Human), UniProt P07949). The test is described as follows: KINOMEscan competition binding assay. How it is done: as §1, §2
The next test addresses TIE2 (Homo sapiens (Human), UniProt Q02763). The test is described as follows: KINOMEscan competition binding assay. How it is done:
as §1, §2

The target of the next test is ABL1(T315I) (Homo sapiens (Human), UniProt P00519, T315I). Nature of the test: KINOMEscan competition binding assay. The method, then: as §1, §2
A further test addresses FLT1 (Homo sapiens (Human), UniProt P17948). The test is described as follows: KINOMEscan competition binding assay. How it is done:
as §1, §2

Another test deals with VEGFR2 (Homo sapiens (Human), UniProt P35968). Nature of the test: KINOMEscan competition binding assay. The method, then: as §1, §2
Another test deals with FLT3 (Homo sapiens (Human), UniProt P36888). Nature of the test: KINOMEscan competition binding assay. The method, then:
as §1, §2

The next test relates to Ba/F3-Y253C. Nature of the test: Relative IC50 in BCR-Abl-expressing cell line. The format is cell-based, murine. Conditions: Mus musculus, 2.5-3 days, read-out: Relative IC50 range. The method, then:
All compounds were initially dissolved in DMSO to make 10 mM stock solutions, and then were serially diluted to obtain final concentrations for in vitro experiments.
Ba/F3.p210 cells were obtained by transfecting the IL-3-dependent marine hematopoietic Ba/F3 cell line with a pGD vector containing p210BCR-ABL (B2A2) cDNA (Daley and Baltimore, 1988; Sattler et al., 1996; Okuda et al., 1996). Murine hematopoietic 32D cells were transduced with retrovirus to express p210 Bcr-ABL (32D.p210 cells) (Matulonis et al., 1993); the 32D-T315I cell line was transfected by electroporation with the imatinib resistant BCR-ABL construct (pCI-neo Mammalian Expression Vector; Promega (#E1841) harboring the point mutation T315I (Weisberg et al., 2005). Ba/F3 cells were stably transfected by electroporation with imatinib-resistant BCR-ABL constructs (pCI-neo Mammalian Expression Vector; Promega (#E1841) harboring the point mutations T315I, F317L, F486S, and M351T; transfectants were selected for neomycin resistance and IL-3-independent growth (Weisberg et al., 2005). Ba/F3 cells were stably transfected by electroporation with BCR-ABL point mutants identified in a random mutagenesis screen for BCR-ABL point mutants conferring resistance to nilotinib: Q252H, E292K, Y253C, Y253H, E255K, and V289L (Ray et al., 2007). […]

Some results are limits rather than exact numbers.

Sequence of BRAF (P15056 whole entry): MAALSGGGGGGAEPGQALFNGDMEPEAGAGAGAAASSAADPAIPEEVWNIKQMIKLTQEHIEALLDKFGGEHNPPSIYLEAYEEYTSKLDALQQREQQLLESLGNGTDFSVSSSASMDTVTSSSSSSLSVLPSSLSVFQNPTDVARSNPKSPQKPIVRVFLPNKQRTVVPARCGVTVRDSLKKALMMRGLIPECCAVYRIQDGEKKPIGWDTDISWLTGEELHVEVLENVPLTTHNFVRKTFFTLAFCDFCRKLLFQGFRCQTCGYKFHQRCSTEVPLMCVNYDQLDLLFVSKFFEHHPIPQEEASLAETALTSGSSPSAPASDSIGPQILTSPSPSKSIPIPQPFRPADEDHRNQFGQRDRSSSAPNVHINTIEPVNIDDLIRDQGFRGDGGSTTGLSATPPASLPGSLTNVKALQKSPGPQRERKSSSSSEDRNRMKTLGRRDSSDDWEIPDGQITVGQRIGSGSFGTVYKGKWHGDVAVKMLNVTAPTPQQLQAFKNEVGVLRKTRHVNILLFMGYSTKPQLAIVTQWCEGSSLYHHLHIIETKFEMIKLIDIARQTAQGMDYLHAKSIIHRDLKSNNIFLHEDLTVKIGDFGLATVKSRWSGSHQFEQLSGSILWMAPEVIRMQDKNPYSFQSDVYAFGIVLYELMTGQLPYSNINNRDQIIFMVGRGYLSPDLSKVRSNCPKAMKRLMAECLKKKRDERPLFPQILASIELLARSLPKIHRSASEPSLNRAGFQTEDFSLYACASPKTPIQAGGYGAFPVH
Sequence of KIT (P10721 26-976): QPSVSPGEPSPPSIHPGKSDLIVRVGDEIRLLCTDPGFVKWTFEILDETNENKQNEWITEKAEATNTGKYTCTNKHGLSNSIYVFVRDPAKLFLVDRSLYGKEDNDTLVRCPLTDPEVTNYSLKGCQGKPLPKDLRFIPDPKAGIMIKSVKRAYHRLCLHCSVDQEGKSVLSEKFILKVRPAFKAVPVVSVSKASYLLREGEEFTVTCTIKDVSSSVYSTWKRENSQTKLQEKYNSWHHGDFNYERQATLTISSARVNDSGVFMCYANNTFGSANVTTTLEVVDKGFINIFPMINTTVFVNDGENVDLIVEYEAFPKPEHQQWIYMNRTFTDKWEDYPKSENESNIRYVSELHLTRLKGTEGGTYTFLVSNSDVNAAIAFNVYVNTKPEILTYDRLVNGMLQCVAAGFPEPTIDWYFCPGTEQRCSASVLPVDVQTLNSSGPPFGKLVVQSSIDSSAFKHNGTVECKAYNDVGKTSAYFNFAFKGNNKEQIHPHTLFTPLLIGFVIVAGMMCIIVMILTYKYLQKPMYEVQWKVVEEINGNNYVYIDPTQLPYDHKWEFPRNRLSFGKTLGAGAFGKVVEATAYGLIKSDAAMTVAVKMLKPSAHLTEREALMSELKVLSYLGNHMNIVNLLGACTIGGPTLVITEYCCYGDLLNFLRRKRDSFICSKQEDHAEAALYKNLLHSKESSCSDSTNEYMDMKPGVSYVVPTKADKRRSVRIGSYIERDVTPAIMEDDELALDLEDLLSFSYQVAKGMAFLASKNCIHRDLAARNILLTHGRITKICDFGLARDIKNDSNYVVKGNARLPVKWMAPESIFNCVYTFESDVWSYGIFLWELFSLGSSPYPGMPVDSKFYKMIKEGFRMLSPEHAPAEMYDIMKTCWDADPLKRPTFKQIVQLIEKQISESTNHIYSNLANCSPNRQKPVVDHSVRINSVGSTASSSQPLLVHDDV
Sequence of LOK (O94804 whole entry): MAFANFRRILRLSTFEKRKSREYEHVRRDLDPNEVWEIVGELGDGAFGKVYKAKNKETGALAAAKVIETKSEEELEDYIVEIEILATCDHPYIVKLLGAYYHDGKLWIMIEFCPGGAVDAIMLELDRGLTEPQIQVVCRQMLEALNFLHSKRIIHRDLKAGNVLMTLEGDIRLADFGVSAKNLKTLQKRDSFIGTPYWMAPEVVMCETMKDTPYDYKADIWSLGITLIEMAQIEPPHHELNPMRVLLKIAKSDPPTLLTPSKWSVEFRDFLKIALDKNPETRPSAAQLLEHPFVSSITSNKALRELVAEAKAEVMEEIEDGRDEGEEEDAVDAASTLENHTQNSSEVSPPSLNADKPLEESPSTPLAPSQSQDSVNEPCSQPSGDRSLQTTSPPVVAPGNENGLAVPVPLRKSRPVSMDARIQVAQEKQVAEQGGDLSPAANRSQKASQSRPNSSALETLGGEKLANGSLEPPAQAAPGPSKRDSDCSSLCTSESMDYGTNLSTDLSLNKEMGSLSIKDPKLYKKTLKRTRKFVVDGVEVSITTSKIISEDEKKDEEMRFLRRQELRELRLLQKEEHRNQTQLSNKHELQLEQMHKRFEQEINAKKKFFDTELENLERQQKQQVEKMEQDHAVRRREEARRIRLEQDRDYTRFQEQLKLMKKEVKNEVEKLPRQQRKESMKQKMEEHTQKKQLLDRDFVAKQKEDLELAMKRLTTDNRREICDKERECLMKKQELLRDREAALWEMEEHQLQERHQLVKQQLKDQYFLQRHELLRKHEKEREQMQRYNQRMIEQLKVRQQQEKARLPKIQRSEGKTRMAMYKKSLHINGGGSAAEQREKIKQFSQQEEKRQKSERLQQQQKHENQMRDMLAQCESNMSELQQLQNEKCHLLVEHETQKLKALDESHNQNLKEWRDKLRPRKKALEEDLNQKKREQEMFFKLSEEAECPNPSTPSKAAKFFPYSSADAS
Sequence of VEGFR2 (P35968 20-1356): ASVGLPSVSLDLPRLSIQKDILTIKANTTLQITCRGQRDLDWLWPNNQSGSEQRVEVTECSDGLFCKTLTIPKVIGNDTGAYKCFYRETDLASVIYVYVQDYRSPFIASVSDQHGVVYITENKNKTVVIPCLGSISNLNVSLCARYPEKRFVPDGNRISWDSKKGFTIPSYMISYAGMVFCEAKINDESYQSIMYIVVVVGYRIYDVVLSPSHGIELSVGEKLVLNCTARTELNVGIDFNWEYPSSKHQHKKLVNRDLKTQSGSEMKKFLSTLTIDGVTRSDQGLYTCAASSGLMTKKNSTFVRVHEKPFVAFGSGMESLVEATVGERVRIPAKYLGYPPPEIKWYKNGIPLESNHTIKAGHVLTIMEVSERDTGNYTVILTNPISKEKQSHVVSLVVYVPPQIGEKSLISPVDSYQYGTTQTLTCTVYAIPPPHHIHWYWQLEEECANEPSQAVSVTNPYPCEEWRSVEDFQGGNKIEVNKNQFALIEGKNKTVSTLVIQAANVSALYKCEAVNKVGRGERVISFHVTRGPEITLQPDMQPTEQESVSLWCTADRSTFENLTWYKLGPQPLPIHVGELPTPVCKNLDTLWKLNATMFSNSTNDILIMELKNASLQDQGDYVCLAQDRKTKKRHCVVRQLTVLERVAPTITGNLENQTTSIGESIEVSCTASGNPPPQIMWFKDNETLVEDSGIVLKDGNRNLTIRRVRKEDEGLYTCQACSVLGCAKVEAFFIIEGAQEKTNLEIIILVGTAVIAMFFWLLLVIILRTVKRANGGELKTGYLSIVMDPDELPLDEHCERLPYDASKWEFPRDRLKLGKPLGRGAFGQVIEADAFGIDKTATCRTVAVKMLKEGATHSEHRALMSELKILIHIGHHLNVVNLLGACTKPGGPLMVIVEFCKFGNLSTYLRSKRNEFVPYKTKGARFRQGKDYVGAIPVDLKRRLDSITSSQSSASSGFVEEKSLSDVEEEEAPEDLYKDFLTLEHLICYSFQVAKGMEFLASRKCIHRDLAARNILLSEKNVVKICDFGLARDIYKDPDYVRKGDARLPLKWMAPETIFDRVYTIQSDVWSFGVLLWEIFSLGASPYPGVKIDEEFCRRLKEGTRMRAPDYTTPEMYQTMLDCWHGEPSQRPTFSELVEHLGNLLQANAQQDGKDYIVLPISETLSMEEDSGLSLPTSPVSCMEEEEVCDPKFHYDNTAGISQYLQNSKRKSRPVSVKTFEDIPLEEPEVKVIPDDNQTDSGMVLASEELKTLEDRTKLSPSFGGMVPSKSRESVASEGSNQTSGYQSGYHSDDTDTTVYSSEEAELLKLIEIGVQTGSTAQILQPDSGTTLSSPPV
Sequence of RET (P07949 29-1114): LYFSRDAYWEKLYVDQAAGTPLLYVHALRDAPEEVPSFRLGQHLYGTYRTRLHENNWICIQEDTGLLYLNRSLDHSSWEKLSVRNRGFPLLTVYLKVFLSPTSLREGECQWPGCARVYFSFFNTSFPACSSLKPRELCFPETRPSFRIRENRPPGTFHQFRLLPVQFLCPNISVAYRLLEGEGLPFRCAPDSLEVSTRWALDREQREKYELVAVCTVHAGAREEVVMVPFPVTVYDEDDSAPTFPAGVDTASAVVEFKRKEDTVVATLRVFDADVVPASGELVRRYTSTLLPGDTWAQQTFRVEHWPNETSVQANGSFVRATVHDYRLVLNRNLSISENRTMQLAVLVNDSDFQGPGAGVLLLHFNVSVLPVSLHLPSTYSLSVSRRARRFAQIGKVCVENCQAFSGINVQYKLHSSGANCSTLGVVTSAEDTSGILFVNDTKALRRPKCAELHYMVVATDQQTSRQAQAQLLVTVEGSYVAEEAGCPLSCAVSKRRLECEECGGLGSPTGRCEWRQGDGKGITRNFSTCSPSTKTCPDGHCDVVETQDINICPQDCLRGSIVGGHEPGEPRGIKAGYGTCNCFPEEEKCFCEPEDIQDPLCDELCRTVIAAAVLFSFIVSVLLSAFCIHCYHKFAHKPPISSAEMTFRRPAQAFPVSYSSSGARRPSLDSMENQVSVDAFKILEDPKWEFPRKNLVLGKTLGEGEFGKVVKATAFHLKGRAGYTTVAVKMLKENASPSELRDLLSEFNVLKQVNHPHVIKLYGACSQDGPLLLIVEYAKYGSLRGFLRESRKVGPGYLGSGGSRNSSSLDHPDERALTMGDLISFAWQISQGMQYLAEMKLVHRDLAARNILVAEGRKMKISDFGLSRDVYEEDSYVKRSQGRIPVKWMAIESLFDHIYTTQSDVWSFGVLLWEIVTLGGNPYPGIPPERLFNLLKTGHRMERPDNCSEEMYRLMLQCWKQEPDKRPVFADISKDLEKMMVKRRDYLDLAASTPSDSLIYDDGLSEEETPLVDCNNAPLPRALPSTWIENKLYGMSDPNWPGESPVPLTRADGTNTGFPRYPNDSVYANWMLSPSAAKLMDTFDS

Consider `CCN1CCN(Cc2ccc(NC(=O)c3cccc(-c4ccc5nc(NC(=O)C6CC6)sc5n4)c3)cc2C(F)(F)F)CC1` [Compound 2], for which the Kd (in general, a measure of binding affinity in units of concentration) on HIPK1 came to 34 nM; on PDGFRA, 7.7 nM; at KIT, 2.9 nM; on p38-gamma, 100 nM; at CDK2, 840 nM; at PDGFRB, 1.8 nM. The Kd on FLT4 stood at 31 nM; on ABL1 it was 3.3 nM; on CDK3, 250 nM; at CDK7, 13 nM; at BRAF, 36 nM; on DDR1, 3.4 nM. Also, the equilibrium dissociation constant (Kd) at LOK was found to be 9.5 nM; at CDK5, 150 nM; at RET it was 5.6 nM; at TIE2, 57 nM; on ABL1(T315I), 1.2 nM; on FLT1, 74 nM. Moreover, the figures for the dissociation constant (Kd) at VEGFR2 and on FLT3 were 58 nM and 2.3 nM, respectively. In the test with Ba/F3-Y253C, the IC50 (commonly the concentration needed to halve the response being measured) is < 100 nM.

Values taken from patent US8765747B2, “Fused 2-aminothiazole compounds” (Dana-Farber Cancer Institute, Inc., priority 2009, dated 2014).
